# Molecular target: T1, IRAK4 (Homo sapiens, UniProt Q9NWZ3)
# T1 construct: endogenous in cells; host or cells: THP-1 cells
# T1 sequence (Q9NWZ3 1-460): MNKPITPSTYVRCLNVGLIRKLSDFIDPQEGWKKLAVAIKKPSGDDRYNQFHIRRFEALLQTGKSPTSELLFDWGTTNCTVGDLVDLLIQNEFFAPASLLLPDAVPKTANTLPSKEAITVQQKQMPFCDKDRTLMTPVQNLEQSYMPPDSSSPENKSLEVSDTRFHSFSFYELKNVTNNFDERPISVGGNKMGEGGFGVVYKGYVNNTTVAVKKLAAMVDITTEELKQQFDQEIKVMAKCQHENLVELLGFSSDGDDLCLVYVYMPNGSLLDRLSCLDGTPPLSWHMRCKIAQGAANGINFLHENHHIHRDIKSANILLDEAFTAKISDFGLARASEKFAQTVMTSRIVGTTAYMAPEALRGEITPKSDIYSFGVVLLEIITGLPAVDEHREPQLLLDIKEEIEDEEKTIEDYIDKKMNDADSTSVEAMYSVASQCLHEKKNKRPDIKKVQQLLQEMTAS
# Test: ALE THP1 HTRF (Advanced Lipoxidation End Product THP1 Homogeneous Time Resolved Fluorescence)
# Format: cell-based
# Conditions: THP1 cells
# Experimental: For Homogenous Time Resolved Fluorescence (HTRF) assays, a Cisbio HTRF kit was used, which included: Lysis Buffer #1 4×, Blocking Reagent #3 100×, 20× Antibody 1 (Anti-IRAK4 d2), 20× Antibody 2 (Anti-IRAK4 k), and Detection Buffer.
# 4× Lysis Buffer was stored at 4° C. For use as 1× Lysis buffer, the 4× solution was diluted with de-ionized water (distilled water, Gibco Cat. #15230279) and 100× Blocking Reagent in a 1:3:0.04 volume ratio.
# 20× Antibody Solution aliquots were stored in −80° C. and the Detection Buffer was stored in 4° C. For use as a 1× Antibody Solution, the 20× Antibody Solution aliquot was diluted with Detection Buffer in a 1:19 volume ratio.
# Cells were lysed at room temperature for 45 min with shaking. A BCA protein assay was performed and normalization was conducted to the desired total protein concentration with 1× lysis buffer. Next, 1× Antibody Solutions were prepared by adding 380 μL Detection Buffer to 20 μL 20× Antibody Solution aliquots and mixing well. 1× Antibody Solutions were combined 1:1 and briefly vortexed. For control wells, 20 μL 1× anti IRAK4-k Antibody Solution was saved. The 384-well plate (ProxiPlate-384 Plus, Perkin Elmer Cat. #6008289) was loaded by adding 4 μL of the mixed Antibody Solution to empty wells using a single channel repeater. Using a multi-channel repeater, 16 μL lysate was added per well, and any bubbles that were formed were popped with 20 μL pipette tips and Kimwipe edges. In column 10, triplicates of each control was prepared. In wells A10, B10, and C10, buffer control was prepared by adding 16 μL Lysis Buffer and 4 μL Detection Buffer. In wells D10, E10, and F10, cryptate control was prepared by adding 16 μL Lysis Buffer, 2 μL Detection Buffer, and 2 μL 1× anti IRAK4-k Antibody Solution. In wells G10, H10, and I10, a negative control was prepared by adding 16 μL Lysis Buffer and 4 μL mixed Antibody Solution. The plate was sealed with a clear seal and covered with an aluminum lid. The plate was spun down at 800 g for 5 min and incubated in the dark at room temperature overnight. The next day, the plate was spun down at 800 g for 5 min. The samples were analyzed by a plate reader (Envision, PerkinElmer) using the Desnor 384 HTRF program.
SMILES,ALE THP1 HTRF YMIN [%],EC50 [nM]
O=C1CCC(N2C(=O)c3ccc(N4CCN(C(=O)C5CCC(NC(=O)c6cnc(Nc7ccc8ncsc8c7)cc6NC6CCCC6)CC5)CC4)cc3C2=O)C(=O)N1 (centres unmarked) [P-2],32.7,97
"O=C1CCC(N2C(=O)c3ccc(N4CCN(C[C@H]5CC[C@H](NC(=O)c6cnc(Nc7ccc8ncsc8c7)cc6NC6CCCC6)CC5)CC4)cc3C2=O)C(=O)N1 (some centres unmarked) [P-3, 6-(1,3-benzothiazol-6-ylamino)-4-(cyclopentylamino)-N-[4-[[4-[2-(2,6-dioxo-3-piperidyl)-1,3-dioxo-isoindolin-5-yl]piperazin-1-yl]methyl]cyclohexyl]pyridine-3-carboxamide]",35.6,273
"CS(=O)(=O)N1CCC(Nc2cc(Nc3ccc4ncsc4c3)ncc2C(=O)NC2CCC(C(=O)N3CCN(c4ccc5c(c4)C(=O)N(C4CCC(=O)NC4=O)C5=O)CC3)CC2)CC1 (centres unmarked) [P-4, 6-(1,3-benzothiazol-6-ylamino)-N-[4-[4-[2-(2,6-dioxo-3-piperidyl)-1,3-dioxo-isoindolin-5-yl]piperazine-1-carbonyl]cyclohexyl]-4-[(1-methylsulfonyl-4-piperidyl)amino]pyridine-3-carboxamide]",35.8,47
O=C1CCC(N2C(=O)c3ccc(N4CCC(C(=O)NC5CCC(n6cc(-c7cnc(Nc8ccc9ncsc9c8)cc7NC7CCCC7)nn6)CC5)CC4)cc3C2=O)C(=O)N1 (centres unmarked) [P-5],17.1,54
N#Cc1cnc2c(ccn2-c2cc(NC3CCCC3)c(C(=O)NC3CCC(C(=O)N4CCN(c5ccc6c(c5)C(=O)N(C5CCC(=O)NC5=O)C6=O)CC4)CC3)cn2)c1 (centres unmarked) [P-6],30.4,18
O=C1CCC(N2C(=O)c3ccc(N4CCN(C(=O)C5CCC(NC(=O)c6cnc(Nc7ccn8nccc8n7)cc6NC6CCCC6)CC5)CC4)cc3C2=O)C(=O)N1 (centres unmarked) [P-7],30.8,37
C[C@H]1CN(c2ccc3c(c2)C(=O)N(C2CCC(=O)NC2=O)C3=O)CCN1C(=O)C1CCC(NC(=O)c2cnc(Nc3ccc4ncsc4c3)cc2NC2CCCC2)CC1 (some centres unmarked) [P-8],40.8,27
O=C1CCC(N2C(=O)c3ccc(N4CCN(C(=O)[C@H]5CC[C@H](n6cc(-c7cnc(Nc8ccc9ncsc9c8)cc7NC7CCCC7)nn6)CC5)CC4)cc3C2=O)C(=O)N1 (some centres unmarked) [P-9],20.0,25
N#Cc1cnc2c(cnn2-c2cc(NC3CCCC3)c(C(=O)NC3CCC(C(=O)N4CCN(c5ccc6c(c5)C(=O)N(C5CCC(=O)NC5=O)C6)CC4)CC3)cn2)c1 (centres unmarked) [P-10],34.8,87

# The remaining lines, values ahead:
ALE THP1 HTRF YMIN [%],EC50 [nM],SMILES
9.8,10,"N#Cc1cnc2c(cnn2-c2cc(NC3CC3)c(C(=O)N[C@H]3CC[C@H](CCN4CCC(c5ccc(C6(F)CCC(=O)NC6=O)cc5)CC4)CC3)cn2)c1 (single isomer, unassigned) [P-125]"
14.9,296,"N#Cc1cnc2c(cnn2-c2cc(NC3CC3)c(C(=O)N[C@H]3CC[C@H](CCN4CCC(c5ccc(C6(F)CCC(=O)NC6=O)cc5)CC4)CC3)cn2)c1 (single isomer, unassigned) [P-126]"
14.7,47,C[C@H](C#N)Nc1cc(-n2ncc3cc(C#N)cnc32)ncc1C(=O)N[C@H]1CC[C@H](CCN2CCN(c3ccc(C4CCC(=O)NC4=O)cc3)CC2)CC1 (stereo in doubt) [P-128]
47.5,1,O=C1CCC(c2ccc(NCC3CCN(C(=O)C4CCC(NC(=O)c5cnc(Nc6ccc7ncsc7c6)cc5NC5CCCC5)CC4)CC3)cc2)C(=O)N1 (centres unmarked) [P-11]
47.7,–,O=C1CCC(N2C(=O)c3ccc(N4CCN(C(=O)C5CCC(NC(=O)c6cnc(Nc7ccc8ncoc8c7)cc6NC6CCCC6)CC5)CC4)cc3C2=O)C(=O)N1 (centres unmarked) [P-12]
43.4,82,C[C@@H]1CN(c2ccc3c(c2)C(=O)N(C2CCC(=O)NC2=O)C3=O)C[C@H](C)N1C(=O)C1CCC(NC(=O)c2cnc(-n3ncc4cc(C#N)cnc43)cc2NC2CCCC2)CC1 (some centres unmarked) [P-13]
